According to patent publication US20240246941A1, “SUBSTITUTED 4-(3-AMINOPROP-1-YL)AMINOQUINOLINE ANALOGS AS MODULATORS OF MELANOMA-ASSOCIATED ANTIGEN 11 UBIQUITIN LIGASE” (ST. JUDE CHILDREN'S RESEARCH HOSPITAL, INC., priority 2020, published 2024):

Each molecule was assayed against interaction between GST-MAGEA11 MHD and FAM-PCF11_4 peptide (MAGE-A11:PCF11) (Homo sapiens (Human), UniProt P43364) (assay: TR-FRET dose response competition assay for disruption of MAGE-A11:PCF11 binding). Settings: Dose response TR-FRET screening of nine scaffold groups against MAGE-A11:PCF11; read-out: consensus IC50.
Chain of interaction between GST-MAGEA11 MHD and FAM-PCF11_4 peptide (MAGE-A11:PCF11) (P43364 218-429): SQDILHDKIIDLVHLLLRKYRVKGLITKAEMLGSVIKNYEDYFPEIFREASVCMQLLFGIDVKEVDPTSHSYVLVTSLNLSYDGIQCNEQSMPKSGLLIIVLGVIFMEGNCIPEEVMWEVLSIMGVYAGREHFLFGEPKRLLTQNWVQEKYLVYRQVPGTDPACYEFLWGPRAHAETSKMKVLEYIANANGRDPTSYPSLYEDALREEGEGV
From the text: TR-FRET Assays and High-throughput Screen. Terbium-anti-GST antibody, 1 M Tris pH 7.5 1 M MgCl2 and 1 M DTT were purchased from Invitrogen (Carlsbad, CA), BSA was purchased from Sigma (St. Louis, MO). Dimethyl sulfoxide (DMSO) was purchased from Fisher Scientific (Pittsburgh, PA). Black 384-well low volume plates and 384-well polypropylene compound plates were purchased from Corning Incorporated (Tewksbury, MA). The St. Jude FDA drug and Bioactive library (11,293 chemicals), Drug-like library (10,073 chemicals) and Lead-like library (10,041 chemicals) were custom assembled and purchased from commercial sources including Sigma, Microsource (Gaylordsville, CT), selleckchem (Houston, TX), ChemDiv (San Diego, CA), ChemBridge (San Diego, CA), Enamine (Monmouth Jct., NJ), and Life Chemicals (Niagara-on-the-Lake, ON, Canada). They were arrayed (10 mM in DMSO) in 384-well polypropylene compound plates with columns 1, 2, 13 and 14 empty which were reserved for controls.
The TR-FRET assay buffer with a formula of 50 mM Tris pH 7.5, 20 mM MgCl2, 0.1 mg/ml BSA and 1 mM DTT was freshly prepared before each experiment. All TR-FRET assays were performed in black 384-well plates with 20 μl/well assay volume in the TR-FRET assay buffer at room temperature (approximately 25° C.). All peptides or compounds were solubilized in DMSO. To test the competitive activity of peptides or compounds against the interaction between GST-MAGEA11 MHD and FAM-PCF11_4 peptide, 10 μl/well peptide or compound at specified concentration was dispensed into a black 384-well low volume plate, followed by 5 μl/well FAM-PCF11_4 (800 nM), 5 μl/well Tb-anti-GST (20 nM) and GST-MAGEA11 MHD (20 nM). The assay components in each well was then mixed by shaking the plate on an IKA MTS 2/4 digital microtiter plate shaker (IKA Works; Wilmington, NC, USA) at 900 RPM for 1 minute. The plate was further centrifuged in an Eppendorf 5810 centrifuge with an A-4-62 swing-bucket rotor (Eppendorf AG, Hamburg, Germany) at 201 g (1000 rpm) for 30 seconds. The plate was then incubated for 90 min with a lid to avoid light exposure to the assay components. After incubation, the fluorescent emission signals at 520 nm and 490 nm channels of individual wells were measured with a PHERAstar FS plate reader (BMG Labtech; Durham, NC, USA) by using a 340 nm excitation filter, 100 μs delay time, and 200 μs integration time. The TR-FRET fluorescence emission ratio (TR-FRET signal) for each well was presented as 10 000×520 nm/490 nm, which was used directly for curve fitting, or further converted to % Inhibition based on the respective positive and negative controls. The graphic software GraphPad Prism 4.81 (GraphPad Software; La Jolla, CA, USA) was used to generate curves and derive IC50 values of tested peptides or compounds, if applicable.
TR-FRET inhibitory activity characterization of a panel of PCF11 peptides against the interaction between GST-MAGEA11 MHD and FAM-PCF11_4 was performed as follows. In a 20 μl/well assay volume, dilutions of PCF11_1 to PCF11_8 peptides (concentrations ranged from 3.1 nM to 100 μM for peptides PCF11_4, PCF11_5, PCF11_6 and PCF11_8 in a 1-to-2 dilution pattern for 16 concentration levels, and ranged from 48.9 nM to 100 μM for peptides of PCF11_1, PCF11_2, PCF11_3 and PCF11_7 in a 1-to-2 dilution pattern for 12 concentration levels), 200 nM FAM-PCF11_4, 5 nM Tb-anti-GST and 5 nM GST-MAGEA11 were mixed together and incubated for 90 min before the TR-FRET signal for each well was measured. The final DMSO concentration was 1.1% (v/v). […] The signal of each peptide-treated well (Signalpeptide) was normalized to the positive and negative controls to derive % inhibition of the peptide at a specific concentration with equation 1. Where applicable, the % Inhibition data were fit into a Sigmoidal dose response equation to derive IC50 values.
TR-FRET screen for identifying MAGEA11 small molecule inhibitors was performed as follows.

Q: For `CCCCCOc1ccc(N(C(C)=O)C2=C(Cl)C(=O)c3ccccc3C2=O)cc1` [SJ000032724-1], which IC50 is on record?
A: The IC50 was 28.3 µM.

Q: With `O=C1C(Cl)=C(N2CCN(S(=O)(=O)c3ccc(Br)cc3)CC2)C(=O)c2ccccc21` [SJ000033014-1] as the molecule, how does the IC50 read?
A: The IC50 was 69.9 µM.

Q: With `CC(=O)Nc1ccc(S(=O)(=O)N2CCN(C3=C(Cl)C(=O)c4ccccc4C3=O)CC2)cc1` [SJ000036320-1] as the molecule, how does the IC50 read?
A: The IC50 was 69.9 µM.

Q: With `COc1cccc(-c2nc(S(=O)(=O)c3ccc(C)cc3)c(N3CCOCC3)o2)c1` [SJ000038123-1] as the molecule, how does the IC50 read?
A: The IC50 was 17.4 µM.

Q: For `COc1cccc(-c2nc(S(=O)(=O)c3ccc(Cl)cc3)c(N3CCOCC3)o2)c1` [SJ000038124-1], which IC50 is on record?
A: Its IC50 is 7.43 µM.

Q: `O=C1C(Cl)=C(N2CCN(S(=O)(=O)c3ccc(F)cc3)CC2)C(=O)c2ccccc21` [SJ000038882-1] was tested. Which IC50 did it give?
A: Its IC50 is 69.9 µM.

Q: `CCOc1ccc(-c2nc(C#N)c(N3CCOCC3)o2)cc1` [SJ000041896-1] was tested. Which IC50 did it give?
A: The IC50 was 69.9 µM.

Q: For `CCOc1ccc(Nc2nc(N)c3ccccc3n2)cc1` [SJ000045621-1], which IC50 is on record?
A: Its IC50 is 69.9 µM.

Q: `Nc1nc(Nc2ccc(O)cc2)nc2ccccc12` [SJ000045622-1] was tested. Which IC50 did it give?
A: Its IC50 is 69.9 µM.

Q: Which IC50 does the source give for `CC(=O)N(C1=C(Cl)C(=O)c2ccccc2C1=O)c1cccc(O)c1` [SJ000046178-1] here?
A: Its IC50 is 69.9 µM.

Q: For `O=C1C(Cl)=C(Nc2cccc(Br)c2)C(=O)c2ccccc21` [SJ000048680-1], which IC50 is on record?
A: The IC50 was 69.9 µM.

Q: How did the IC50 turn out when `O=C1c2ccccc2NC(c2ccc([N+](=O)[O-])cc2)N1Cc1ccccc1` (stereo not drawn) [SJ000051049-1] was run?
A: Its IC50 is 69.9 µM.

Q: How did the IC50 turn out when `COc1ccc(-c2nc(C#N)c(N3CCOCC3)o2)cc1` [SJ000051527-1] was run?
A: The IC50 was 69.9 µM.

Q: With `CC(=O)NC1=C(N)C(=O)c2ccccc2C1=O` [SJ000053101-1] as the molecule, how does the IC50 read?
A: Its IC50 is 69.9 µM.

Q: For `O=C(NCC(O)CO)c1ccc2[nH]c3ccccc3c2c1` (stereo not drawn) [SJ000053810-1], which IC50 is on record?
A: The IC50 was 69.9 µM.

Q: How did the IC50 turn out when `OCCNCCNCc1ccc2[nH]c3ccccc3c2c1` [SJ000053962-1] was run?
A: The IC50 was 69.9 µM.

Q: How did the IC50 turn out when `CN(C)CCCNCc1ccc2[nH]c3ccccc3c2c1` [SJ000054243-1] was run?
A: The IC50 was 69.9 µM.

Q: How did the IC50 turn out when `CC(=O)NC1=C(Cl)C(=O)c2ccccc2C1=O` [SJ000067071-3] was run?
A: The IC50 was 69.9 µM.

Q: Which IC50 does the source give for `COc1ccc(Nc2nc(N)c3ccccc3n2)cc1` [SJ000067204-1] here?
A: Its IC50 is 69.9 µM.

Q: For `COP(=O)(OC)c1nc(-c2ccc(C)cc2)oc1N1CCOCC1` [SJ000090156-1], which IC50 is on record?
A: The IC50 was 69.9 µM.

Q: How did the IC50 turn out when `COP(=O)(OC)c1nc(-c2ccc(Br)cc2)oc1N1CCOCC1` [SJ000090176-1] was run?
A: The IC50 was 69.9 µM.

Q: Which IC50 does the source give for `COP(=O)(OC)c1nc(-c2ccc(Cl)cc2)oc1N1CCOCC1` [SJ000090185-1] here?
A: The IC50 was 17.4 µM.

Q: For `CCOP(=O)(OCC)c1nc(-c2ccc(Cl)cc2)oc1N1CCOCC1` [SJ000090230-1], which IC50 is on record?
A: Its IC50 is 69.9 µM.

Q: How did the IC50 turn out when `COP(=O)(OC)c1nc(-c2ccc([N+](=O)[O-])cc2)oc1N1CCOCC1` [SJ000092444-1] was run?
A: Its IC50 is 69.9 µM.

Q: For `CCOP(=O)(OCC)c1nc(-c2ccc([N+](=O)[O-])cc2)oc1N1CCOCC1` [SJ000092459-1], which IC50 is on record?
A: The IC50 was 69.9 µM.

Q: With `CN(C)c1ccc(NC2=C(Cl)C(=O)c3ccccc3C2=O)cc1` [SJ000109503-1] as the molecule, how does the IC50 read?
A: Its IC50 is 3.3 µM.

Q: With `CCn1c2ccccc2c2cc(CN3CCN(Cc4c[nH]c5ccccc45)CC3)ccc21` [SJ000111264-1] as the molecule, how does the IC50 read?
A: Its IC50 is 69.9 µM.

Q: How did the IC50 turn out when `COc1ccc(C2Nc3ccccc3C(=O)N2Cc2ccccc2)cc1CSc1ccccn1` (stereo not drawn) [SJ000111312-2] was run?
A: Its IC50 is 69.9 µM.

Q: `CCn1c2ccccc2c2cc(CNCCc3ccccc3)ccc21` [SJ000111712-1] was tested. Which IC50 did it give?
A: The IC50 was 69.9 µM.

Q: For `CCn1c2ccccc2c2cc(CN3CCN(Cc4cc(OC)ccc4O)CC3)ccc21` [SJ000111875-2], which IC50 is on record?
A: Its IC50 is 69.9 µM.

Q: With `CCn1c2ccccc2c2cc(CNCc3ccc(OC)cc3)ccc21` [SJ000112430-1] as the molecule, how does the IC50 read?
A: The IC50 was 69.9 µM.

Q: Which IC50 does the source give for `CCn1c2ccccc2c2cc(CNCCc3ccc(Cl)cc3)ccc21` [SJ000112458-1] here?
A: Its IC50 is 69.9 µM.

Q: How did the IC50 turn out when `CCn1c2ccccc2c2cc(CNCCc3ccc4c(c3)OCO4)ccc21` [SJ000112461-1] was run?
A: Its IC50 is 69.9 µM.

Q: For `CCn1c2ccccc2c2cc(CN3CCC(N4CCN(c5ccccc5)CC4)CC3)ccc21` [SJ000112860-1], which IC50 is on record?
A: Its IC50 is 69.9 µM.

Q: For `COc1cc2nc(N3CCN(C(=O)C4COc5ccccc5O4)CC3)nc(N)c2cc1OC` (stereo not drawn) [SJ000113084-10], which IC50 is on record?
A: The IC50 was 57.1 µM.

Q: How did the IC50 turn out when `Cc1ccc(NC2=C(Cl)C(=O)c3ccccc3C2=O)cc1` [SJ000120750-1] was run?
A: Its IC50 is 69.9 µM.
